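Values below derive from 48-hour exposures of cells grown in 96-well plates, with endpoints linearly interpolated between the two concentrations bracketing the appropriate inhibition level. TGI: total growth inhibition.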
Legend:
Assay in all cases: NCI tumour cell line growth inhibition, 48 h
LXFL 529 NSCLC = test system: LXFL 529 NSCLC
SK-MEL-28 melanoma = test system: SK-MEL-28 melanoma
UACC-62 melanoma = test system: UACC-62 melanoma
HCC-2998 colon = test system: HCC-2998 colon
SN12C renal = test system: SN12C renal
SNB-75 CNS = test system: SNB-75 CNS
RPMI-8226 leukemia = test system: RPMI-8226 leukemia
OVCAR-5 ovarian = test system: OVCAR-5 ovarian
SK-MEL-2 melanoma = test system: SK-MEL-2 melanoma
SF-539 CNS = test system: SF-539 CNS
OVCAR-4 ovarian = test system: OVCAR-4 ovarian
OVCAR-8 ovarian = test system: OVCAR-8 ovarian
UACC-257 melanoma = test system: UACC-257 melanoma
SF-295 CNS = test system: SF-295 CNS
IGROV1 ovarian = test system: IGROV1 ovarian
MALME-3M melanoma = test system: MALME-3M melanoma
SN12K1 renal = test system: SN12K1 renal
OVCAR-3 ovarian = test system: OVCAR-3 ovarian
P388/ADR leukemia = test system: P388/ADR leukemia
HOP-18 NSCLC = test system: HOP-18 NSCLC

Compound | TGI (LXFL 529 NSCLC) | TGI (SK-MEL-28 melanoma) | TGI (UACC-62 melanoma) | TGI (HCC-2998 colon) | TGI (SN12C renal) | TGI (SNB-75 CNS) | TGI (RPMI-8226 leukemia) | TGI (OVCAR-5 ovarian) | TGI (SK-MEL-2 melanoma) | TGI (SF-539 CNS) | TGI (OVCAR-4 ovarian) | TGI (OVCAR-8 ovarian) | TGI (UACC-257 melanoma) | TGI (SF-295 CNS) | TGI (IGROV1 ovarian) | TGI (MALME-3M melanoma) | TGI (SN12K1 renal) | TGI (OVCAR-3 ovarian) | TGI (P388/ADR leukemia) | TGI (HOP-18 NSCLC)
O=C(c1ccccc1)c1ccc2n[se]nc2c1 | > 100 µM | > 100 µM | > 100 µM | 73.7 µM | > 100 µM | > 100 µM | > 100 µM | > 100 µM | > 100 µM | 43 µM | > 100 µM | > 100 µM | > 100 µM | 37 µM | > 100 µM | > 100 µM |  |  |  | 
CC1=C2C(O)C(C(C)C(=O)N(C)C)CCC2(C)C=CC1=O (stereo not drawn) |  | > 100 µM | > 100 µM | > 100 µM | > 100 µM | > 100 µM | > 100 µM | > 100 µM | > 100 µM | > 100 µM | > 100 µM | > 100 µM | > 100 µM | > 100 µM | > 100 µM |  | > 100 µM | > 100 µM | > 100 µM | > 100 µM
CN(C)CCNC(=O)c1cccc2c(=O)c3ccccc3oc12 |  | > 100 µM | > 76.2 µM | > 100 µM | > 78.7 µM | > 87.3 µM | > 87.1 µM | > 82.9 µM | 98.9 µM | > 100 µM | > 90.5 µM | > 83.5 µM | 74.4 µM | 98.9 µM | > 100 µM | 64.3 µM | 47.5 µM | > 100 µM | 73.2 µM | > 100 µM
CCOP(=Nc1ccc(N(C)C)cc1)(OCC)OCC |  | > 100 µM | > 100 µM | > 100 µM |  | > 100 µM | > 100 µM | > 100 µM | > 100 µM |  | > 100 µM | > 100 µM | > 100 µM | > 100 µM | > 100 µM | > 100 µM |  | > 100 µM |  | 
CCC1C[N+]23CCc4c([nH]c5ccccc45)C2CC1CC3 (stereo not drawn) | > 100 µM | > 100 µM | > 100 µM | > 100 µM | > 100 µM | > 100 µM | > 100 µM | > 100 µM | > 100 µM |  | > 100 µM | > 100 µM | > 100 µM | > 100 µM | > 100 µM | 97.4 µM |  | > 100 µM |  | 

From PubChem BioAssay (NCI)
